Common to all, as to test: relative viability (nuclei count vs DMSO), 5 days (fraction); higher = more cells survive
Compound in the experiment “Adavosertib + Foretinib”: C=CCn1c(=O)c2cnc(Nc3ccc(N4CCN(C)CC4)cc3)nc2n1-c1cccc(C(C)(C)O)n1 [Adavosertib] + COc1cc2c(Oc3ccc(NC(=O)C4(C(=O)Nc5ccc(F)cc5)CC4)cc3F)ccnc2cc1OCCCN1CCOCC1 [Foretinib] (partner 0.25 µM)
Put shortly:
(§1)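 Lung cancer cell lines in 1536-well plates got either a single drug or a fixed anchor-drug dose together with five library-drug doses (not always all listed) in √10 steps, by pin tool, on the day after seeding. Nuclei were counted after 5 days, and relative viability is the treated-to-vehicle ratio of nuclei counts. Values are medians of duplicate plates.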

Compound in the experiment “Adavosertib + Pictilisib”: C=CCn1c(=O)c2cnc(Nc3ccc(N4CCN(C)CC4)cc3)nc2n1-c1cccc(C(C)(C)O)n1 [Adavosertib] + CS(=O)(=O)N1CCN(Cc2cc3nc(-c4cccc5[nH]ncc45)nc(N4CCOCC4)c3s2)CC1 [Pictilisib] (partner 1 µM)
Put shortly: as §1

Compound in the experiment “Nelarabine + Tozasertib”: COc1nc(N)nc2c1ncn2[C@@H]1O[C@H](CO)[C@@H](O)[C@@H]1O [Nelarabine] + Cc1cc(Nc2cc(N3CCN(C)CC3)nc(Sc3ccc(NC(=O)C4CC4)cc3)n2)n[nH]1 [Tozasertib] (partner 0.1 µM)
The method, boiled down: as §1

Compound in the experiment “Nelarabine + Olaparib”: COc1nc(N)nc2c1ncn2[C@@H]1O[C@H](CO)[C@@H](O)[C@@H]1O [Nelarabine] + O=C(c1cc(Cc2n[nH]c(=O)c3ccccc23)ccc1F)N1CCN(C(=O)C2CC2)CC1 [Olaparib] (partner 8 µM)
The method, boiled down:
as §1

Consider NCI-H520, for which the relative viability was 0.784 in the experiment with Adavosertib + Foretinib (first compound 0.01 µM); 0.81 in the experiment with Adavosertib + Foretinib (first compound 0.03162 µM); 0.743 with Adavosertib + Foretinib (first compound 0.1 µM); 0.703 with Adavosertib + Foretinib (first compound 0.3162 µM); 0.288 with Adavosertib + Pictilisib (first compound 0.01 µM); 0.286 with Adavosertib + Pictilisib (first compound 0.03162 µM). The relative viability in the experiment with Adavosertib + Pictilisib (first compound 0.1 µM) came to 0.381; in the experiment with Adavosertib + Pictilisib (first compound 0.3162 µM) it was 0.269; with Nelarabine + Tozasertib (first compound 0.01 µM) it was 0.574; with Nelarabine + Tozasertib (first compound 0.03162 µM), 0.315; with Nelarabine + Tozasertib (first compound 0.1 µM), 0.429; in the experiment with Nelarabine + Tozasertib (first compound 0.3162 µM), 0.457. In addition, the relative viability stood at 0.429 with Nelarabine + Tozasertib (first compound 1 µM); 0.29 with Nelarabine + Olaparib (first compound 0.01 µM); 0.29 with Nelarabine + Olaparib (first compound 0.03162 µM); 0.343 with Nelarabine + Olaparib (first compound 0.1 µM); 0.366 in the experiment with Nelarabine + Olaparib (first compound 0.3162 µM); 0.363 with Nelarabine + Olaparib (first compound 1 µM).

Take RERF-LC-KJ: the relative viability with Adavosertib + Foretinib (first compound 0.01 µM) amounted to 0.857; in the experiment with Adavosertib + Foretinib (first compound 0.03162 µM) it was 0.844; in the experiment with Adavosertib + Foretinib (first compound 0.1 µM), 0.882; with Adavosertib + Foretinib (first compound 0.3162 µM) it was 0.954; with Adavosertib + Pictilisib (first compound 0.01 µM) it was 0.568; in the experiment with Adavosertib + Pictilisib (first compound 0.03162 µM), 0.636. For the same cell line, the relative viability with Adavosertib + Pictilisib (first compound 0.1 µM) is 0.519; in the experiment with Adavosertib + Pictilisib (first compound 0.3162 µM), 0.358; with Nelarabine + Tozasertib (first compound 0.01 µM), 0.558; with Nelarabine + Tozasertib (first compound 0.03162 µM) it was 0.483; with Nelarabine + Tozasertib (first compound 0.1 µM), 0.456; with Nelarabine + Tozasertib (first compound 0.3162 µM), 0.5. Besides, the relative viability is 0.513 with Nelarabine + Tozasertib (first compound 1 µM); 0.946 in the experiment with Nelarabine + Olaparib (first compound 0.01 µM); 1 with Nelarabine + Olaparib (first compound 0.03162 µM); 1.11 with Nelarabine + Olaparib (first compound 0.1 µM); 0.987 with Nelarabine + Olaparib (first compound 0.3162 µM); 0.852 with Nelarabine + Olaparib (first compound 1 µM).

Turning to NCI-H441, the relative viability was 1.04 in the experiment with Adavosertib + Foretinib (first compound 0.01 µM); 0.964 in the experiment with Adavosertib + Foretinib (first compound 0.03162 µM); 1.09 in the experiment with Adavosertib + Foretinib (first compound 0.1 µM); 0.916 with Adavosertib + Foretinib (first compound 0.3162 µM); 0.561 with Adavosertib + Pictilisib (first compound 0.01 µM); 0.497 with Adavosertib + Pictilisib (first compound 0.03162 µM). Further, the relative viability with Adavosertib + Pictilisib (first compound 0.1 µM) was 0.378; with Adavosertib + Pictilisib (first compound 0.3162 µM), 0.33; with Nelarabine + Tozasertib (first compound 0.01 µM), 0.691; with Nelarabine + Tozasertib (first compound 0.03162 µM), 0.704; with Nelarabine + Tozasertib (first compound 0.1 µM), 0.58; in the experiment with Nelarabine + Tozasertib (first compound 0.3162 µM) it was 0.61. In addition, the relative viability with Nelarabine + Tozasertib (first compound 1 µM) came out at 0.697; in the experiment with Nelarabine + Olaparib (first compound 0.01 µM) it was 0.5; with Nelarabine + Olaparib (first compound 0.03162 µM) it was 0.518; with Nelarabine + Olaparib (first compound 0.1 µM) it was 0.561; with Nelarabine + Olaparib (first compound 0.3162 µM), 0.677; in the experiment with Nelarabine + Olaparib (first compound 1 µM), 0.697.

As to NCI-H1666, the relative viability with Adavosertib + Foretinib (first compound 0.01 µM) came to 0.93; with Adavosertib + Foretinib (first compound 0.03162 µM) it was 0.953; in the experiment with Adavosertib + Foretinib (first compound 0.1 µM), 0.961; with Adavosertib + Foretinib (first compound 0.3162 µM) it was 0.887; with Adavosertib + Pictilisib (first compound 0.01 µM) it was 0.5; in the experiment with Adavosertib + Pictilisib (first compound 0.03162 µM) it was 0.324. Further, the relative viability came out at 0.309 in the experiment with Adavosertib + Pictilisib (first compound 0.1 µM); 0.403 in the experiment with Adavosertib + Pictilisib (first compound 0.3162 µM); 0.626 with Nelarabine + Tozasertib (first compound 0.01 µM); 0.572 with Nelarabine + Tozasertib (first compound 0.03162 µM); 0.606 with Nelarabine + Tozasertib (first compound 0.1 µM); 0.578 with Nelarabine + Tozasertib (first compound 0.3162 µM). Moreover, the relative viability in the experiment with Nelarabine + Tozasertib (first compound 1 µM) came out at 0.632; with Nelarabine + Olaparib (first compound 0.01 µM), 0.681; in the experiment with Nelarabine + Olaparib (first compound 0.03162 µM), 0.638; in the experiment with Nelarabine + Olaparib (first compound 0.1 µM), 0.737; with Nelarabine + Olaparib (first compound 0.3162 µM), 0.665; in the experiment with Nelarabine + Olaparib (first compound 1 µM), 0.769.

Consider NCI-H1755, for which the relative viability stood at 0.881 with Adavosertib + Foretinib (first compound 0.01 µM); 0.893 with Adavosertib + Foretinib (first compound 0.03162 µM); 0.912 in the experiment with Adavosertib + Foretinib (first compound 0.1 µM); 0.918 with Adavosertib + Foretinib (first compound 0.3162 µM); 0.433 with Adavosertib + Pictilisib (first compound 0.01 µM); 0.451 with Adavosertib + Pictilisib (first compound 0.03162 µM). The relative viability in the experiment with Adavosertib + Pictilisib (first compound 0.1 µM) was 0.4; in the experiment with Adavosertib + Pictilisib (first compound 0.3162 µM), 0.326; in the experiment with Nelarabine + Tozasertib (first compound 0.01 µM), 0.683; with Nelarabine + Tozasertib (first compound 0.03162 µM), 0.524; with Nelarabine + Tozasertib (first compound 0.1 µM), 0.561; in the experiment with Nelarabine + Tozasertib (first compound 0.3162 µM) it was 0.645. Besides, the relative viability with Nelarabine + Tozasertib (first compound 1 µM) turned out to be 0.557; in the experiment with Nelarabine + Olaparib (first compound 0.01 µM), 0.878; with Nelarabine + Olaparib (first compound 0.03162 µM) it was 0.966; with Nelarabine + Olaparib (first compound 0.1 µM) it was 0.931; with Nelarabine + Olaparib (first compound 0.3162 µM), 0.938; with Nelarabine + Olaparib (first compound 1 µM) it was 0.927.

On to COR-L23, for which the relative viability with Adavosertib + Foretinib (first compound 0.01 µM) came out at 1.02; with Adavosertib + Foretinib (first compound 0.03162 µM), 0.997; with Adavosertib + Foretinib (first compound 0.1 µM), 1.08; in the experiment with Adavosertib + Foretinib (first compound 0.3162 µM) it was 0.644; in the experiment with Adavosertib + Pictilisib (first compound 0.01 µM) it was 0.665; in the experiment with Adavosertib + Pictilisib (first compound 0.03162 µM), 0.636. The relative viability was found to be 0.722 with Adavosertib + Pictilisib (first compound 0.1 µM); 0.266 with Adavosertib + Pictilisib (first compound 0.3162 µM); 0.199 with Nelarabine + Tozasertib (first compound 0.01 µM); 0.165 with Nelarabine + Tozasertib (first compound 0.03162 µM); 0.168 in the experiment with Nelarabine + Tozasertib (first compound 0.1 µM); 0.22 in the experiment with Nelarabine + Tozasertib (first compound 0.3162 µM). Besides, the relative viability in the experiment with Nelarabine + Tozasertib (first compound 1 µM) was 0.185; with Nelarabine + Olaparib (first compound 0.01 µM), 0.432; with Nelarabine + Olaparib (first compound 0.03162 µM), 0.31; in the experiment with Nelarabine + Olaparib (first compound 0.1 µM) it was 0.301; in the experiment with Nelarabine + Olaparib (first compound 0.3162 µM) it was 0.373; with Nelarabine + Olaparib (first compound 1 µM) it was 0.363.

In the case of SK-LU-1, the relative viability came out at 0.773 in the experiment with Adavosertib + Foretinib (first compound 0.01 µM); 0.831 in the experiment with Adavosertib + Foretinib (first compound 0.03162 µM); 0.563 with Adavosertib + Foretinib (first compound 0.1 µM); 0.311 with Adavosertib + Foretinib (first compound 0.3162 µM); 0.649 with Adavosertib + Pictilisib (first compound 0.01 µM); 0.532 with Adavosertib + Pictilisib (first compound 0.03162 µM). The relative viability with Adavosertib + Pictilisib (first compound 0.1 µM) came out at 0.456; with Adavosertib + Pictilisib (first compound 0.3162 µM) it was 0.242; with Nelarabine + Tozasertib (first compound 0.01 µM), 0.307; with Nelarabine + Tozasertib (first compound 0.03162 µM), 0.198; with Nelarabine + Tozasertib (first compound 0.1 µM) it was 0.298; with Nelarabine + Tozasertib (first compound 0.3162 µM), 0.323. The relative viability with Nelarabine + Tozasertib (first compound 1 µM) worked out at 0.332; in the experiment with Nelarabine + Olaparib (first compound 0.01 µM), 0.524; in the experiment with Nelarabine + Olaparib (first compound 0.03162 µM), 0.314; with Nelarabine + Olaparib (first compound 0.1 µM), 0.5; with Nelarabine + Olaparib (first compound 0.3162 µM) it was 0.505; in the experiment with Nelarabine + Olaparib (first compound 1 µM), 0.397.
